# Reference: US20140163095A1, “USE OF ERIBULIN IN THE TREATMENT OF BREAST CANCER” (priority 2012, published 2014)
# System: locally advanced or metastatic breast cancer
# Assay: Phase III clinical trial comparing eribulin mesylate and capecitabine
# [1] = of patients with any new metastasis
# Description: A global, randomized, open-label, two-parallel-arm, phase III clinical trial of eribulin (eribulin mesylate) and capecitabine was performed.
# This study randomized 1102 patients who had up to three prior chemotherapy regimens, and no more than two prior regimens for advanced and/or metastatic disease. The prior regimens must have included an anthracycline and a taxane, either in the (neo) adjuvant setting or for locally advanced or metastatic disease. Patients must have had documented evidence of progression during or after their most recent anti-cancer therapy. […] Patients were randomized to receive either eribulin mesylate as an intravenous (IV) infusion of 1.4 mg/m^2 over 2-5 minutes on days 1 and 8 every 21 days or capecitabine as an oral administration of 2.5 g/m^2/day administered twice daily in two equal doses on days 1 to 14 every 21 days.
# This study was designed to have co-primary endpoints, overall survival (OS) and progression free survival (PFS), with alpha spending 0.04 and 0.01, respectively.
# Progression events (disease progression determined by Response Evaluation Criteria in Solid Tumors [RECIST, version 1.0]) were categorized as: (i) emergence of a new lesion/metastasis, defined here as a lesion identified at progression that had not been previously reported, (ii) increase in size of an existing (previously reported) lesion (target or non-target), and (iii) other PFS event, e.g., death, clinical progression, or censoring. Investigator review of disease progression was used as the primary analysis for these investigations. Where progression was determined by investigator review, no further scans were performed, leading to informative censoring of independent review data (approximately 20%). The number of new metastases observed by independent review was considered an under-estimate due to this considerable informative censoring. OS and PFS were compared between treatment arms using two-sided, stratified (geographic region and HER2 status) log-rank tests. The correlation between progression events and OS was investigated by Cox regression, incorporating the event as a time-dependent covariate. New metastasis-free survival, defined as time from randomization to death or progression due to appearance of a new metastasis (whichever occurs earlier), was also analyzed.
structure (smiles),measurement,setting,value
"CCCCCOC(=O)Nc1nc(=O)n([C@@H]2O[C@H](C)[C@@H](O)[C@H]2O)cc1F [Capecitabine, reference compound]",median overall survival (OS),all randomized patients,14.5 months
same,median progression-free survival (PFS),all randomized patients,4.2 months
same,"New metastasis site: Bone, patients",count,62
same,"New metastasis site: Breast, patients",count,13
same,"New metastasis site: CNS (brain/spine), patients",count,25
same,"New metastasis site: Chest wall, patients",count,5
same,"New metastasis site: Liver, patients",count,74
same,"New metastasis site: Lung, patients",count,76
same,"New metastasis site: Lymph nodes, patients",count,55
same,"New metastasis site: Other, patients",count,53
same,"New metastasis site: Skin, patients",count,26
same,Number of patients with any new metastasis observed,"count, investigator review, intent-to-treat",316
same,patients with progression due to a new metastasis,investigator review,52.0%
same,patients with progression due to increase in the size of a pre-existing lesion,investigator review,23.5%
same,patients with progression due to other reasons such as death and clinical progression,investigator review,24.5%
same,"patients with any new metastasis observed, percentage","investigator review, intent-to-treat",(57.7) %
same,"New metastasis site: Bone, percentage",[1],(19.6) %
same,"New metastasis site: Breast, percentage",[1],(4.1) %
same,"New metastasis site: CNS (brain/spine), percentage",[1],(7.9) %
same,"New metastasis site: Chest wall, percentage",[1],(1.6) %
same,"New metastasis site: Liver, percentage",[1],(23.4) %
same,"New metastasis site: Lung, percentage",[1],(24.1) %
same,"New metastasis site: Lymph nodes, percentage",[1],(17.4) %
same,"New metastasis site: Other, percentage",[1],(16.8) %
same,"New metastasis site: Skin, percentage",[1],(8.2) %
same,Median OS,patients whose disease progressed due to other events,15.5 months
same,Median OS,patients with progression due to new metastasis,12.9 months
same,Median OS,patients with progression due to pre-existing lesion,17.4 months
